# According to ChEMBL document CHEMBL4190203, “Effects of Cinnamoyloxy-mammeisin from Geopropolis on Osteoclast Differentiation and Porphyromonas gingivalis-Induced Periodontitis” (J Nat Prod, 2017):
# The source made the active and inactive calls. No cut-off for these calls is given here.
# Tests used:
# BMMC [1] = assay: Inhibition of M-CSF/RANKL-induced osteoclast differentiation in C57BL/6 mouse BMMC assessed as decrease in multinucleated TRAP+ cells at 20 uM after 3 days by TRAP staining-based assay; type: functional, cell-based
# BMMC [2] = assay: Reduction in M-CSF/RANKL-induced V-ATPase mRNA levels in C57BL/6 mouse BMMC at 20 uM after 3 days by RT-qPCR analysis; type: functional, cell-based
# BMMC [3] = assay: Reduction in M-CSF/RANKL-induced Trap/Acp5 mRNA levels in C57BL/6 mouse BMMC at 20 uM after 3 days by RT-qPCR analysis; type: functional, cell-based
# BMMC [4] = assay: Reduction in M-CSF/RANKL-induced MMP-9 mRNA levels in C57BL/6 mouse BMMC at 20 uM after 3 days by RT-qPCR analysis; type: functional, cell-based
# [5] = target: Matrix metalloproteinase-9 (Mus musculus) (UniProt P41245); assay: Inhibition of MMP9 activity in C57BL/6 mouse BMMC at 5 to 20 uM by coomassie blue staining-based gelatin zymography assay; type: cell-based
# Chain of Matrix metalloproteinase-9 (Mus musculus) (P41245 whole entry): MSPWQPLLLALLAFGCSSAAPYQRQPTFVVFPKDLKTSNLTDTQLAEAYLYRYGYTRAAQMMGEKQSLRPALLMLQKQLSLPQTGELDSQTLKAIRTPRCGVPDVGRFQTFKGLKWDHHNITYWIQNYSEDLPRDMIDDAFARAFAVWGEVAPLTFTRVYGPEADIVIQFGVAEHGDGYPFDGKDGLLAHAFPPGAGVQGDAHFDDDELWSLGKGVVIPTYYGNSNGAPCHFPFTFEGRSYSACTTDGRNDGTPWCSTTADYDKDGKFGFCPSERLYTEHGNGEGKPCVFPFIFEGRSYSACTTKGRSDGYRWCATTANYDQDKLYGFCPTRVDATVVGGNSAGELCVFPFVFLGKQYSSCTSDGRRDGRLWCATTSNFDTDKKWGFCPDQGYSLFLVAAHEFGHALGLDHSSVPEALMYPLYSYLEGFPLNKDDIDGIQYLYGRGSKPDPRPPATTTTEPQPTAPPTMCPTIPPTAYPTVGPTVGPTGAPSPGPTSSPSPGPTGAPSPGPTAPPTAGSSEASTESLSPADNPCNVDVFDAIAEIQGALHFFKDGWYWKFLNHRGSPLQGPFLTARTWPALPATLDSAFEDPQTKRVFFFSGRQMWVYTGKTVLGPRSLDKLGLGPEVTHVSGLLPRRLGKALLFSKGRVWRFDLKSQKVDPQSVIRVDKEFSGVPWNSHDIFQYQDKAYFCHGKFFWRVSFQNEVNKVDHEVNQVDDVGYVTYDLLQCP
# Mus musculus [6] = assay: Antiperiodontitic activity in BALB/c mouse model of Porphyromonas gingivalis-induced periodontitis assessed as reduction in maxillary tissue Trap/Acp5 mRNA levels at 100 ug/kg, id dosed once in 2 days for 30 days; type: functional, organism-based
# BMMC [7] = assay: Downregulation of M-CSF/RANKL-induced integrin alphaV protein expression levels in C57BL/6 mouse BMMC at 20 uM after 3 days by Western blot analysis; type: functional, cell-based
# BMMC [8] = assay: Inhibition of M-CSF/RANKL-induced matrix resorption capacity in C57BL/6 mouse BMMC at 10 to 20 uM after 4 days in hydroxyapatite-coated plates; type: functional, cell-based
# BMMC [9] = assay: Reduction in M-CSF/RANKL-induced Itgb3 mRNA levels in C57BL/6 mouse BMMC at 20 uM after 3 days by RT-qPCR analysis; type: functional, cell-based
# Mus musculus [10] = assay: Antiperiodontitic activity in BALB/c mouse model of Porphyromonas gingivalis-induced periodontitis assessed as reduction in maxillary tissue CtsK mRNA levels at 100 ug/kg, id dosed once in 2 days for 30 days; type: functional, organism-based
# BMMC [11] = assay: Downregulation of M-CSF/RANKL-induced CTSK protein expression levels in C57BL/6 mouse BMMC at 20 uM after 3 days by Western blot analysis; type: functional, cell-based
# Mus musculus [12] = assay: Antiperiodontitic activity in BALB/c mouse model of Porphyromonas gingivalis-induced periodontitis assessed as reduction in alveolar bone resorption at 100 ug/kg, id dosed once in 2 days for 30 days; type: functional, organism-based
# BMMC [13] = assay: Inhibition of M-CSF/RANKL-induced osteoclast differentiation in C57BL/6 mouse BMMC assessed as decrease in multinucleated TRAP+ cells after 3 days by TRAP staining-based assay; type: functional, cell-based
# BMMC [14] = assay: Downregulation of M-CSF/RANKL-induced NFATc1 protein expression levels in C57BL/6 mouse BMMC after 3 days by Western blot analysis; type: functional, cell-based
# BMMC [15] = assay: Cytotoxicity against C57BL/6 mouse BMMC at 5 to 20 uM after 3 days in presence of M-CSF/RANKL by MTT assay; type: cell-based; details: 72 h
# Mus musculus [16] = assay: Antiperiodontitic activity in BALB/c mouse model of Porphyromonas gingivalis-induced periodontitis assessed as reduction in maxillary tissue Mmp9 mRNA levels at 100 ug/kg, id dosed once in 2 days for 30 days; type: functional, organism-based
# BMMC [17] = assay: Reduction in M-CSF/RANKL-induced NFATc1 mRNA levels in C57BL/6 mouse BMMC at 20 uM after 3 days by RT-qPCR analysis; type: functional, cell-based
# BMMC [18] = assay: Reduction in M-CSF/RANKL-induced Ctsk mRNA levels in C57BL/6 mouse BMMC at 20 uM after 3 days by RT-qPCR analysis; type: functional, cell-based
smiles,measurement,setting,value
CC(C)=CCc1c(O)c(C(=O)CC(C)COC(=O)/C=C/c2ccccc2)c(O)c2c(-c3ccccc3)cc(=O)oc12 (stereo not drawn),inhibition,BMMC [1],Active
same,Activity,BMMC [2],Active
same,Activity,BMMC [3],Active
same,Activity,BMMC [4],Active
same,inhibition,[5],Active
same,Activity,Mus musculus [6],Active
same,Activity,BMMC [7],Active
same,inhibition,BMMC [8],Active
same,Activity,BMMC [9],Active
same,Activity,Mus musculus [10],Active
same,Activity,BMMC [11],Active
same,Activity,Mus musculus [12],Active
same,inhibition,BMMC [13],Dose-dependent effect
same,Activity,BMMC [14],Dose-dependent effect
same,Activity,BMMC [15],Non-Toxic
same,Activity,Mus musculus [16],inactive
same,Activity,BMMC [17],Active
same,Activity,BMMC [18],Active
